# Experimental data published in patent publication US20080176810A1, “Use of 3, 4', 5-Trihydroxy-Stilbene-3-Beta-D-glucoside in Prepartion of Medicines For Treating and/or Preventing Ischemic Heart Disease” (SHENZHEN NEPTUNUS PHARMACEUTICAL CO., LTD., priority 2004, published 2008).
# Test system: anesthetized dogs
# Assay: Myocardial oxygen consumption, coronary flow, cardiac output in anesthetized dogs, iv
# Assay type: in vivo
# Settings: c3-c8 5,15,30,60,90,120 min after administration; for coronary artery resistance, x ± s / myocardial oxygen consumption, x ± s / total peripheral resistance (TPR), x ± s / cardiac output, x ± s / myocardial oxygen uptake, x ± s: c2 0 min before
# Experimental: Isosorbide Dinitrate control group were medicated by continuous intravenous infusion and other groups by intravenous injection.
# The animals were anesthetised with 3% pentobarbital sodium iv at the dose of 30 mg/kg. Tracheal intubation was performed and SC-M5 anesthesia respirator (manufactured by Shanghai Medical Instrument Factory, frequency: 16˜18 per min, tidal volume: 350˜550 ml) was connected. Bilateral femoral arteries were separated for blood sampling and analyzing and measurement of mean blood pressure. Thoracotomy at the fourth intercostal space was performed to expose the heart and to open the pericardium to make pericardial hammock. Ascending aortic root and upper part of left branch of anterior descending coronary artery were dissociated to put respectively probes of electromagnetic flowmeter (MFV-1100/1200, made by Japanese Nihon Kohden Company) to measure cardiac output and coronary artery flow rate. Right jugular vein was separated for insertion of a cardiac catheter that was guided into coronary venous sinuses before fixation. Synchronously, blood was sampled by drawing from coronary sinus and femoral artery (0.5% heparin was added for anticoagulation). pO2 and pH were detected with a blood gas analyzer (DH-1830 Blood Gas Acid-base Analyze, Nanjing Ananalysis Apparatus Factor) and the values were converted to artery and venous oxygen content. After intravenous infusion of control solvent or the drug, constant infusion for all groups was completed with an electronic constant flow pump (SH-88AB Controllable Intravenous Injector made by Quanzhou Lizhong Electronic Medical Instrument Factory). Both artery and venous blood gas before administration or 5, 15, 30, 60, 90 and 120 min after administration was analyzed and mean blood pressure and cardiac output at 0, 5, 15, 30, 60, 90 and 120 min were observed.
# Myocardial oxygen consumption(ml/min/100 g)=coronary flow ml/min/100 g×artery oxygen−coronary sinus oxygen ml %).
# Myocardial oxygen uptake (%)=(artery oxygen ml %−coronary sinus oxygen ml %)/artery oxygen ml %
# Total peripheral resistance of general circulation(dyn·s·cm−5)=mean arterial blood pressure[MAP(KPa)]×80/cardiac output[CO(L/min)]=mean arterial blood pressure[MAP(mmHg)]×10.6/cardiac output[CO(L/min)]
# Coronary resistance[Kpa/ml/min]=mean arterial blood pressure[MAP(KPa)]/coronary artery flow.
# [1] = TSG 2.5 mg/kg iv, 0 min, before administration
# [2] = TSG 2.5 mg/kg iv, 5 min after administration
# [3] = TSG 2.5 mg/kg iv, 15 min after administration
# [4] = TSG 2.5 mg/kg iv, 30 min after administration
# [5] = TSG 2.5 mg/kg iv, 60 min after administration
# [6] = TSG 2.5 mg/kg iv, 90 min after administration
# [7] = TSG 2.5 mg/kg iv, 120 min after administration
# [8] = TSG 2.5 mg/kg iv, before administration, 0 min
# [9] = TSG 5 mg/kg iv, 0 min, before administration
# [10] = TSG 5 mg/kg iv, 5 min after administration
# [11] = TSG 5 mg/kg iv, 15 min after administration
# [12] = TSG 5 mg/kg iv, 30 min after administration
# [13] = TSG 5 mg/kg iv, 60 min after administration
# [14] = TSG 5 mg/kg iv, 90 min after administration
# [15] = TSG 5 mg/kg iv, 120 min after administration
substance,measurement,setting,value
"3,4′,5-trihydroxy-stilbene-3-β-D-glucoside [TSG]","coronary artery resistance, x ± s",[1],0.268 ± 0.050 Kpa/ml/min
same,"myocardial oxygen consumption, x ± s",[1],214.6 ± 5.24 mL/min.100 g^−1
same,"total peripheral resistance (TPR), x ± s",[1],888.8 ± 200.9 dyn·s·cm^−5
same,"cardiac output, x ± s",[2],1.09 ± 0.12 L/min
same,"coronary artery resistance, x ± s",[2],0.269 Kpa/ml/min
same,"myocardial oxygen consumption, x ± s",[2],215.5 ± 8.73 mL/min.100 g^−1
same,"myocardial oxygen uptake, x ± s",[2],77.4%
same,"total peripheral resistance (TPR), x ± s",[2],873.5 ± 210.3 dyn·s·cm^−5
same,"cardiac output, x ± s",[3],1.09 ± 0.14 L/min
same,"coronary artery resistance, x ± s",[3],0.266 ± 0.049 Kpa/ml/min
same,"total peripheral resistance (TPR), x ± s",[3],888.7 ± 208.8 dyn·s·cm^−5
same,"cardiac output, x ± s",[4],1.10 ± 0.13 L/min
same,"coronary artery resistance, x ± s",[4],0.257 ± 0.054 Kpa/ml/min
same,"myocardial oxygen consumption, x ± s",[4],218.2 ± 6.85 mL/min.100 g^−1
same,"myocardial oxygen uptake, x ± s",[4],74.2 ± 5.11%
same,"total peripheral resistance (TPR), x ± s",[4],869.1 ± 249.3 dyn·s·cm^−5
same,"cardiac output, x ± s",[5],1.11 ± 0.13 L/min
same,"coronary artery resistance, x ± s",[5],0.261 ± 0.051 Kpa/ml/min
same,"myocardial oxygen consumption, x ± s",[5],218.0 ± 8.95 mL/min.100 g^−1
same,"myocardial oxygen uptake, x ± s",[5],73.1 ± 6.16%
same,"total peripheral resistance (TPR), x ± s",[5],890.2 ± 240.3 dyn·s·cm^−5
same,"coronary artery resistance, x ± s",[6],0.267 ± 0.054 Kpa/ml/min
same,"myocardial oxygen consumption, x ± s",[6],214.1 ± 8.39 mL/min.100 g^−1
same,"myocardial oxygen uptake, x ± s",[6],75.0 ± 6.24%
same,"total peripheral resistance (TPR), x ± s",[6],877.6 ± 225.1 dyn·s·cm^−5
same,"cardiac output, x ± s",[7],1.10 ± 0.14 L/min
same,"coronary artery resistance, x ± s",[7],0.271 ± 0.055 Kpa/ml/min
same,"total peripheral resistance (TPR), x ± s",[7],868.6 ± 221.8 dyn·s·cm^−5
same,"cardiac output, x ± s",[8],1.06 ± 0.13 L/min
same,"myocardial oxygen uptake, x ± s",[8],76.9 ± 5.50%
same,"cardiac output, variation %",[2],2.50 ± 2.42%
same,"coronary artery resistance, variation %",[2],0.81%
same,"myocardial oxygen consumption, variation %",[2],0.40 ± 3.16%
same,"myocardial oxygen uptake, variation %",[2],0.72%
same,"total peripheral resistance (TPR), variation %",[2],−1.89 ± 6.74%
same,"cardiac output, variation %",[3],1.97 ± 1.55%
same,"coronary artery resistance, variation %",[3],−0.34 ± 2.36%
same,"total peripheral resistance (TPR), variation %",[3],−0.10 ± 4.21%
same,"cardiac output, variation %",[4],3.88 ± 3.48%
same,"coronary artery resistance, variation %",[4],−3.82 ± 9.83%
same,"myocardial oxygen consumption, variation %",[4],1.66 ± 1.48%
same,"myocardial oxygen uptake, variation %",[4],−3.47 ± 1.59%
same,"total peripheral resistance (TPR), variation %",[4],−3.22 ± 9.65%
same,"cardiac output, variation %",[5],4.41 ± 1.40%
same,"coronary artery resistance, variation %",[5],−2.48 ± 8.17%
same,"myocardial oxygen consumption, variation %",[5],1.57 ± 2.94%
same,"myocardial oxygen uptake, variation %",[5],−4.99 ± 3.01 %
same,"total peripheral resistance (TPR), variation %",[5],−0.56 ± 7.52%
same,"cardiac output, variation %",[6],4.40 ± 1.64%
same,"coronary artery resistance, variation %",[6],−0.24 ± 10.72%
same,"myocardial oxygen consumption, variation %",[6],−0.25 ± 2.84%
same,"myocardial oxygen uptake, variation %",[6],−2.58 ± 2.67 %
same,"total peripheral resistance (TPR), variation %",[6],−1.52 ± 9.42%
same,"cardiac output, variation %",[7],3.23 ± 2.57%
same,"coronary artery resistance, variation %",[7],1.19 ± 6.55%
same,"total peripheral resistance (TPR), variation %",[7],−2.58 ± 7.26%
same,"coronary artery resistance, x ± s",[9],0.299 ± 0.029 Kpa/ml/min
same,"myocardial oxygen consumption, x ± s",[9],211.4 ± 4.05 mL/min.100 g^−1
same,"total peripheral resistance (TPR), x ± s",[9],906.3 ± 193.9 dyn·s·cm^−5
same,"cardiac output, x ± s",[10],1.13 ± 0.12 L/min
same,"coronary artery resistance, x ± s",[10],0.308 Kpa/ml/min
same,"myocardial oxygen consumption, x ± s",[10],210.4 ± 6.48 mL/min.100 g^−1
same,"myocardial oxygen uptake, x ± s",[10],79.6%
same,"total peripheral resistance (TPR), x ± s",[10],897.1 ± 184.7 dyn·s·cm^−5
same,"cardiac output, x ± s",[11],1.13 ± 0.13 L/min
same,"coronary artery resistance, x ± s",[11],0.305 ± 0.029 Kpa/ml/min
same,"total peripheral resistance (TPR), x ± s",[11],916.6 ± 186.2 dyn·s·cm^−5
same,"cardiac output, x ± s",[12],1.15 ± 0.14 L/min
same,"coronary artery resistance, x ± s",[12],0.299 ± 0.026 Kpa/ml/min
same,"myocardial oxygen consumption, x ± s",[12],210.2 ± 8.65 mL/min.100 g^−1
same,"myocardial oxygen uptake, x ± s",[12],74.8 ± 5.66%
same,"total peripheral resistance (TPR), x ± s",[12],915.2 ± 199.9 dyn·s·cm^−5
same,"cardiac output, x ± s",[13],1.16 ± 0.14 L/min
same,"coronary artery resistance, x ± s",[13],0.288 ± 0.026 Kpa/ml/min
same,"myocardial oxygen consumption, x ± s",[13],212.9 ± 7.2 mL/min.100 g^−1
same,"myocardial oxygen uptake, x ± s",[13],74.5 ± 6.05%
same,"total peripheral resistance (TPR), x ± s",[13],907.8 ± 194.0 dyn·s·cm^−5
same,"cardiac output, x ± s",[14],1.16 ± 0.13 L/min
same,"coronary artery resistance, x ± s",[14],0.287 ± 0.028 Kpa/ml/min
same,"myocardial oxygen consumption, x ± s",[14],209.6 ± 9.01 mL/min.100 g^−1
same,"myocardial oxygen uptake, x ± s",[14],75.1 ± 6.48%
same,"total peripheral resistance (TPR), x ± s",[14],891.7 ± 188.6 dyn·s·cm^−5
same,"cardiac output, x ± s",[15],1.14 ± 0.13 L/min
same,"coronary artery resistance, x ± s",[15],0.287 ± 0.031 Kpa/ml/min
same,"total peripheral resistance (TPR), x ± s",[15],881.8 ± 188.9 dyn·s·cm^−5
